Results reported in US6656911B2, “Serine protease inhibitors” (Cortech, Inc., priority 1994, dated 2003).

Biological target: T1, human neutrophil elastase (HNE) (Homo sapiens, UniProt P08246)
T1 sequence (P08246 30-267): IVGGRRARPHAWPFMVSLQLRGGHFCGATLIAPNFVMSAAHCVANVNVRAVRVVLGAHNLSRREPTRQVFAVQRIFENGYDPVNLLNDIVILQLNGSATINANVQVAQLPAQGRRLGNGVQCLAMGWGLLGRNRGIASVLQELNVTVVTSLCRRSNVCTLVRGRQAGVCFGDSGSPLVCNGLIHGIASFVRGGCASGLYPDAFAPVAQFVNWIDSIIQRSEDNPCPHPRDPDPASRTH
Test: HNE Ki of CE compounds, tested as described in WO 96/16080
Assay type: biochemical
Settings: read-out: HNE Ki

SMILES	Ki
COC(=O)c1c(F)c2ccccc2n(CC(=O)N[C@H](C(=O)c2nnc(Cc3cccc(C)c3)o2)C(C)C)c1=O [CE2117, 3-Carbomethoxy-4-fluoro-quinoline-2-one-N-[1-(2-[5-(3-methylbenzyl)-1,3,4-oxadiazolyl]carbonyl)-2-(S)-methylpropyl]acetamide]	586 nM
Cc1cccc(Cc2nnc(C(=O)C(NC(=O)CN3C(=O)CCSC3c3ccccc3)C(C)C)o2)c1 [CE2118, 2-[2-(R,S)-Phenyl-4-oxometathiazan-3-yl]-N-[1-(2-[5-(3-methylbenzyl)-1,3,4-oxadiazolyl]carbonyl)-2-(S)-methylpropyl]acetamide]	13.2 nM
Cc1cccc(Cc2nnc(C(=O)C(NC(=O)CN3C(=O)CSC3c3ccccc3)C(C)C)o2)c1 [CE2121, 2-[2-(R,S)-Phenyl-4-oxothiazolidin-3-yl]-N-[1-(2-[5-(3-methylbenzyl)-1,3,4-oxadiazolyl]carbonyl)-2-(S)-methylpropyl]acetamide]	28 nM
Cc1cccc(Cc2nnc(C(=O)[C@@H](NC(=O)CN3C(=O)CSC3Cc3ccccc3)C(C)C)o2)c1 (some centres unmarked) [CE2122]	63 nM
Cc1cccc(Cc2nnc(C(=O)[C@@H](NC(=O)CN3C(=O)CN(Cc4ccccc4)C(=O)[C@@H]3Cc3ccccc3)C(C)C)o2)c1 [CE2128, 4-[1-Benzyl-3-(S)-benzylpiperazine-2,5,-dione]-N-[1-(2-(5-(3-methylbenzyl)-1,3,4-oxadiazolyl]carbonyl)-2-(S)-methylpropyl]acetamide]	64 nM
CC(C)[C@H](NC(=O)CN1C(=O)CN(Cc2ccccc2)C(=O)[C@@H]1Cc1ccccc1)C(=O)c1noc(Cc2cccc(C(F)(F)F)c2)n1 [CE2129, 4-[1-Benzyl-3-(S)-benzylpiperazine-2,5,-dione]-N-[1-(3-[5-(3-trifluoromethylbenzyl)-1,2,4-oxadiazolyl]carbonyl)-2-(S)-methylpropyl]acetamide]	300 nM
CC(C)[C@H](NC(=O)CN1C(=O)CN(Cc2ccccc2)C(=O)[C@@H]1Cc1ccccc1)C(=O)c1noc(CCN(C)C)n1 [CE2133, 4-[1-Benzyl-3-(S)-benzylpiperazine-2,5,-dione]-N-[1-(3-[5-(2-dimethylaminoethyl)-1,2,4-oxadiazolyl]carbonyl)-2-(S)-methylpropyl]acetamide]	33000 nM
Cc1cccc(Cc2nnc(C(=O)C(NC(=O)CN3C(=O)C[S+]([O-])C3Cc3ccccc3)C(C)C)o2)c1 [CE2136, 2-[(2-(R,S)-Benzyl-4-oxothiazolidin-3-yloxide]-N-[1-(2-[5-(3-methylbenzyl)-1,3,4-oxadiazolyl]carbonyl)-2-(R,S)-methylpropyl]acetamide]	104 nM
CC(C)C(NC(=O)CN1C(=O)C[S+]([O-])C1Cc1ccccc1)C(=O)c1noc(Cc2cccc(C(F)(F)F)c2)n1 [CE2137, 2-[2-(R,S)-Benzyl-4-oxothiazolidin-3-yloxide]-N-[1-(3-[5-(3-trifluoromethylbenzyl)-1,2,4-oxadiazolyl]carbonyl)-2-(R,S)-methylpropyl]acetamide]	558 nM
Cc1cccc(Cc2nnc(C(=O)[C@@H](NC(=O)CN3CC(=O)N(C(=O)c4ccccc4)CC3=O)C(C)C)o2)c1 [CE2138, (1-Benzoyl-3,6-piperazinedione)-N-[1-(2-[5-(3-S methylbenzyl)-1,3,4-oxadiazolyl]carbonyl)-2-(S)-methylpropyl]acetamide]	294 nM
Cc1cccc(Cc2nnc(C(=O)[C@@H](NC(=O)Cn3c(=O)c4ccccc4n(C(=O)c4ccccc4)c3=O)C(C)C)o2)c1 [CE2140, (1-Benzoyl-3,8-quinazolinedione)-N-[1-(2-[5-(3-methylbenzyl)-1,3,4-oxadiazolyl]carbonyl)-2-(S)-methylpropyl]acetamide]	204 nM
Cc1cccc(Cc2nnc(C(=O)[C@@H](NC(=O)CN3C(=O)N[C@H](Cc4ccccc4)C3=O)C(C)C)o2)c1 [CE2142, 5-(R)-Benzyl-2,4-imidazolidinedione-N-[1-(2-[5-(3-methylbenzyl)-1,3,4-oxadiazolyl]carbonyl)-2-(S)-methylpropyl]acetamide]	8.7 nM
CC(=O)N1c2ccccc2C[C@H]1C(=O)N[C@H](C(=O)c1noc(Cc2cccc(C(F)(F)F)c2)n1)C(C)C [CE2143, Acetyl-2-L-(2,3-dihydro-1H-indole)-N-[1-(3-[5(3-trifluoromethylbenzyl)-1,2,4-oxadiazolyl]carbonyl)-2-(S)-methylpropyl]amide]	11.5 nM
Cc1cccc(Cc2nnc(C(=O)[C@@H](NC(=O)CN3C(=O)CN(Cc4ccccc4)C(=O)[C@H]3Cc3ccccc3)C(C)C)o2)c1 [CE2144, 4-[1-Benzyl-3-(R)-benzyl-piperazine-2,5,-dione]-N-[1-([5-(3-methylbenzyl)-1,3,4-oxadiazolyl]carbonyl)-2-(S)-methylpropyl]acetamide]	9.3 nM
Cc1cccc(Cc2nnc(C(=O)[C@@H](NC(=O)[C@@H]3Cc4ccccc4N3C(=O)[C@@H](NC(=O)OCc3ccccc3)C(C)C)C(C)C)o2)c1 [CE2145, (Benzyloxycarbonyl)-L-valyl-2-L-(2,3-dihydro-1H-indole)-N-[1-(2-[5-(3-methylbenzyl)-1,3,4-oxadiazolyl]carbonyl)-2-(S)-methylpropyl]amide]	0.038 nM
CC(C)[C@H](NC(=O)CN1C(=O)CN(Cc2ccccc2)C(=O)[C@H]1Cc1ccccc1)C(=O)c1noc(Cc2cccc(C(F)(F)F)c2)n1 [CE2146, 4-[1-Benzyl-3-(R)-benzylpiperazine-2,5,-dione]-N-[1-(3-(5-(3-trifluoromethylbenzyl)-1,2,4-oxadiazolyl]carbonyl)-2-(S)-methylpropyl]acetamide]	67 nM
Cc1cccc(Cc2nnc(C(=O)[C@@H](NC(=O)CN3CC(=O)N(c4ccccc4)CC3=O)C(C)C)o2)c1 [CE2147, (1-Phenyl-3,6-piperazinedione)-N-[1-(2-[5-(3-methylbenzyl)-1,3,4-oxadiazolyl]carbonyl)-2-(S)-methylpropyl]acetamide]	1600 nM
CC(C)[C@H](NC(=O)CN1C(=O)N[C@@H](Cc2ccccc2)C1=O)C(=O)c1noc(Cc2cccc(C(F)(F)F)c2)n1 [CE2155, 5-(S)-Benzyl-2,4-imidazolidinedione-N-[1-(3-[5-(3-trifluoromethylbenzyl)-1,2,4-oxadiazolyl]carbonyl)-2-(S)-methylpropyl]acetamide]	57 nM
Cc1cccc(Cc2nnc(C(=O)[C@@H](NC(=O)CN3C(=O)CNC(=O)C3Cc3ccncc3)C(C)C)o2)c1 (stereo partly drawn) [CE2159, 2-(R,S)-[6-(Methylene-4-pyridyl)piperazine-2,5-dione]-N-[1-(2-[5-(3-methylbenzyl)-1,3,4-oxadiazolyl]carbonyl)-2-(S)-methylpropyl]acetamide]	52 nM
CC(C)[C@H](NC(=O)CN1CCCC(NC(=O)OCc2ccccc2)C1=O)C(=O)c1noc(Cc2cccc(C(F)(F)F)c2)n1 (stereo partly drawn) [CE2160, 3-(R,S)-[(Benzyloxycarbonyl)amino-δ-lactam]-N-[1-(3-[5-(3-trifluoromethylbenzyl)-1,2,4-oxadiazolyl]carbonyl)-2-(S)-methylpropyl]acetamide]	260 nM
Cc1cccc(Cc2nnc(C(=O)[C@@H](NC(=O)Cn3c(=O)[nH]n(-c4ccccc4)c3=O)C(C)C)o2)c1 [CE2166, 1-Phenyl-1,2,4-triazolidine-3,5-dione-N-[1-(2-[5-(3-methylbenzyl)-1,3,4-oxadiazolyl]carbonyl)-2-(S)-methylpropyl]acetamide]	145 nM
Cc1cccc(Cc2nnc(C(=O)[C@@H](NC(=O)[C@@H]3CCCN3C(=O)[C@@H](NS(=O)(=O)c3ccccc3)C(C)C)C(C)C)o2)c1 [CE2168, Phenylsulfonyl-L-valyl-N-[1-(2-[5-(3-methylbenzyl)-1,3,4-oxadiazolyl]carbonyl)-2-(S)-methylpropyl]-L-prolinamide]	0.15 nM
Cc1cccc(Cc2nnc(C(=O)[C@@H](NC(=O)OCc3ccccc3)C(C)C)o2)c1 [CE2170]	297 nM
CC(C)[C@H](NC(=O)[C@@H]1CCCN1C(=O)[C@@H](NC(=O)c1cccnc1)C(C)C)C(=O)c1noc(Cc2cccc(C(F)(F)F)c2)n1 [CE2171, (3-Pyridylcarbonyl)-L-valyl-N-[1-(3-[5-(3-trifluoromethylbenzyl)-1,2,4-oxadiazolyl]carbonyl)-2-(S)-methylpropyl]-L-prolinamide]	0.64 nM
Cc1cccc(Cc2nnc(C(=O)[C@@H](NC(=O)Cn3c(=O)[nH]n(Cc4ccccc4)c3=O)C(C)C)o2)c1 [CE2176, 1-Benzyl-1,2,4-triazolidine-3,5-dione-N-[1-(2-[5-(3-methylbenzyl)-1,3,4-oxadiazolyl]carbonyl)-2-(S)-methylpropyl]acetamide]	52 nM
CC(C)C(NC(=O)CN1C(=O)C(Cc2ccccc2)N(CCN2CCOCC2)C1=O)C(=O)c1noc(Cc2cccc(C(F)(F)F)c2)n1 [CE2180, 1-(N-Morpholinoethyl)-5-(R)-benzyl-2,4-imidazolidinedione-N-[1-(3-[5-(3-trifluoromethylbenzyl)-1,2,4-oxadiazolyl]carbonyl)-2-(R,S)-methylpropyl]acetamide]	44 nM
CC(C)C(NC(=O)CN1C(=O)C(Cc2ccccc2)N(CCN2CCOCC2)C1=O)C(=O)c1noc(Cc2cccc(C(F)(F)F)c2)n1 [CE2181, 1-(N-Morpholinoethyl)-5-(S)-benzyl-2,4-imidazolidinedione-N-[1-(3-[5-(3-trifluoromethylbenzyl)-1,2,4-oxadiazolyl]carbonyl)-2-(R,S)-methylpropyl]acetamide]	46 nM
CC(C)C(NC(=O)CN1C(=O)C(c2ccccc2)N(C)C1=O)C(=O)c1noc(Cc2cccc(C(F)(F)F)c2)n1 [CE2182, 5-(R,S)-Phenyl-1-methyl-2,4-imidazolidinedione-N-[1-(3-[5-(3-trifluoromethylbenzyl)-1,2,4-oxadiazolyl]carbonyl)-2-(S)-methylpropyl]acetamide]	54 nM
Cc1cccc(Cc2nnc(C(=O)C(NC(=O)C3Cc4ccccc4CN3C(=O)C(NC(=O)OCc3ccccc3)C(C)C)C(C)C)o2)c1 [CE2183, Benzyloxycarbonyl-L-valyl-(1,2,3,4-tetrahydroisoquinoline)-3-N-[1-(2-[5-(3-methylbenzyl)-1,3,4-oxadiazolyl]carbonyl)-2-(R,S)-methylpropyl]amide]	0.23 nM
